Data from ChEMBL document CHEMBL4334510, “Antitumor Activity of Vanicoside B Isolated from Persicaria dissitiflora by Targeting CDK8 in Triple-Negative Breast Cancer Cells” (J Nat Prod, 2019).
The source made the active and inactive calls. No cut-off for these calls is given here.

Key:
[1] = Toxicity in Balb/c mouse xenografted with human MDA-MB-231 cells assessed as reduction in body weight at 5 mg/kg, ip ip administered 3 times per week and measured 2 times per week for 29 days; format: organism-based; details: in vivo, 696 h
Mus musculus [2] = assay: Downregulation of AXL expression in Balb/c mouse xenografted with human MDA-MB-231 cells at 5 mg/kg, ip administered 3 times per week for 29 days by DAB staining based immunohistochemical analysis; format: functional, organism-based
Mus musculus [3] = assay: Downregulation of Ki67 expression in Balb/c mouse xenografted with human MDA-MB-231 cells at 5 mg/kg, ip administered 3 times per week for 29 days by DAB staining based immunohistochemical analysis; format: functional, organism-based
Mus musculus [4] = assay: Downregulation of phosphorylated STAT1 expression at ser727 residue in Balb/c mouse xenografted with human MDA-MB-231 cells at 5 mg/kg, ip administered 3 times per week for 29 days by DAB staining based immunohistochemical analysis; format: functional, organism-based
Mus musculus [5] = assay: Downregulation of AXL expression in Balb/c mouse xenografted with human MDA-MB-231 cells at 5 to 20 mg/kg, ip administered 3 times per week for 29 days by DAB staining based immunohistochemical analysis; format: functional, organism-based
[6] = target: Cyclin-dependent kinase 8 (Homo sapiens) (UniProt P49336); assay: Inhibition of CDK8 in human MDA-MB-231 cells assessed as reduction in S6 phosphorylation after 24 hrs by Western blot analysis; format: cell-based
Chain of Cyclin-dependent kinase 8 (Homo sapiens) (P49336 whole entry): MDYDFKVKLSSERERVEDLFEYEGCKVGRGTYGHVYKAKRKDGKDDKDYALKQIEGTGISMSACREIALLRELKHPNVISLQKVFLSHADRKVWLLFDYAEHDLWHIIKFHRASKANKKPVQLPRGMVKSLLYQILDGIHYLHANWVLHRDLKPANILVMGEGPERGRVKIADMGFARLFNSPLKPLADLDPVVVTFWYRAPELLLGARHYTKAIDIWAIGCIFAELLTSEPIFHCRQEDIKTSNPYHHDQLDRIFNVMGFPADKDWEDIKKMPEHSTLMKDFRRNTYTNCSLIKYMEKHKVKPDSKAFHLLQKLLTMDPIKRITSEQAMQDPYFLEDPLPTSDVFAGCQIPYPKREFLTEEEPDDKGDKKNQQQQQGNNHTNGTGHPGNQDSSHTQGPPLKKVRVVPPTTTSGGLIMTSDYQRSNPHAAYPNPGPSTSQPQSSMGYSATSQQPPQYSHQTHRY

[7] = target: Cyclin-dependent kinase 8 (Homo sapiens) (UniProt P49336); assay: Inhibition of CDK8 in human MDA-MB-231 cells assessed as increase in P27 expression after 48 hrs by Western blot analysis; format: cell-based
[8] = target: Cyclin-dependent kinase 8 (Homo sapiens) (UniProt P49336); assay: Inhibition of CDK8 in human MDA-MB-231 cells assessed as reduction in skp2 expression after 48 hrs by Western blot analysis; format: cell-based
MDA-MB-231 [9] = assay: Inhibition of epithelial-mesenchymal transition in human MDA-MB-231 cells reduction in BMP4 protein expression after 24 hrs by Western blot analysis; format: functional, cell-based
Mus musculus [10] = assay: Downregulation of phosphorylated STAT1 expression at ser727 residue in Balb/c mouse xenografted with human MDA-MB-231 cells at 5 to 20 mg/kg, ip administered 3 times per week for 29 days by DAB staining based immunohistochemical analysis; format: functional, organism-based
[11] = target: Cyclin-dependent kinase 8 (Homo sapiens) (UniProt P49336); assay: Inhibition of CDK8 in human MDA-MB-231 cells assessed as increase in P27 expression at 10 uM after 24 hrs by RT-PCR analysis; format: cell-based
HCC38 [12] = assay: Antimigratory activity against human HCC38 cells at 1.25 to 5 uM after 24 hrs by scratch wound healing based microscopic analysis; format: functional, cell-based
[13] = target: Cyclin-dependent kinase 8 (Homo sapiens) (UniProt P49336); assay: Inhibition of CDK8 in human HCC38 cells assessed as reduction in HK1 expression at 10 uM after 24 hrs by RT-PCR analysis; format: cell-based
MDA-MB-231 [14] = assay: Antitumour activity against human MDA-MB-231 cells xenografted in Balb/c mouse assessed as reduction in tumour volume at 20 mg/kg, ip administered 3 times per week and measured 2 times per week for 29 days relative to control; format: functional; parameters: scale not given: the % may be the effect or the level left
MDA-MB-231 [15] = assay: Induction of apoptosis in human MDA-MB-231 cells assessed as increase in PARP cleavage after 48 hrs by Western blot analysis; format: functional, cell-based
MDA-MB-231 [16] = assay: Induction of apoptosis in human MDA-MB-231 cells at 2.5 to 20 uM after 48 hrs by Annexin-V/PI staining based flow cytometric analysis; format: functional, cell-based
MDA-MB-231 [17] = assay: Inhibition of epithelial-mesenchymal transition in human MDA-MB-231 cells reduction in vimentin protein expression after 24 hrs by Western blot analysis; format: functional, cell-based
HCC38 [18] = assay: Induction of apoptosis in human HCC38 cells assessed as increase in PARP cleavage after 48 hrs by Western blot analysis; format: functional, cell-based
HCC38 [19] = assay: Inhibition of epithelial-mesenchymal transition in human HCC38 cells reduction in vimentin protein expression after 24 hrs by Western blot analysis; format: functional, cell-based
MDA-MB-231 [20] = assay: Inhibition of epithelial-mesenchymal transition in human MDA-MB-231 cells reduction in N-cadherin expression at 5 uM after 24 hrs by RT-PCR analysis; format: functional, cell-based
HCC38 [21] = assay: Inhibition of colony formation in human HCC38 cells assessed as reduction in colony size at 20 uM after 14 days by crystal violet staining based light microscopic analysis; format: functional, cell-based
[22] = target: Cyclin-dependent kinase 8 (Homo sapiens) (UniProt P49336); assay: Inhibition of CDK8 in human MDA-MB-231 cells assessed as reduction in STAT3 phosphorylation after 24 hrs by Western blot analysis; format: cell-based
HCC38 [23] = assay: Inhibition of epithelial-mesenchymal transition in human HCC38 cells reduction in BMP4 protein expression after 24 hrs by Western blot analysis; format: functional, cell-based
[24] = target: Cyclin-dependent kinase 8 (Homo sapiens) (UniProt P49336); assay: Inhibition of CDK8 in human HCC38 cells assessed as reduction in skp2 expression after 48 hrs by Western blot analysis; format: cell-based
MDA-MB-231 [25] = assay: Antitumour activity against human MDA-MB-231 cells xenografted in Balb/c mouse assessed as reduction in tumour volume at 5 mg/kg, ip administered 3 times per week and measured 2 times per week for 29 days relative to control; format: functional; parameters: scale not given: the % may be the effect or the level left
MDA-MB-231 [26] = assay: Inhibition of epithelial-mesenchymal transition in human MDA-MB-231 cells increase in E-cadherin expression at 5 uM after 24 hrs by RT-PCR analysis; format: functional, cell-based
HCC38 [27] = assay: Induction of apoptosis in human HCC38 cells at 2.5 to 20 uM after 48 hrs by Annexin-V/PI staining based flow cytometric analysis; format: functional, cell-based
Mus musculus [28] = assay: Downregulation of Ki67 expression in Balb/c mouse xenografted with human MDA-MB-231 cells at 5 to 20 mg/kg, ip administered 3 times per week for 29 days by DAB staining based immunohistochemical analysis; format: functional, organism-based
HCC38 [29] = assay: Antiproliferative activity against human HCC38 cells assessed as reduction in cell viability after 72 hrs by SRB assay; format: functional, cell-based
[30] = target: Cyclin-dependent kinase 8 (Homo sapiens) (UniProt P49336); assay: Inhibition of CDK8 in human MDA-MB-231 cells assessed as reduction in HK1 expression at 10 uM after 24 hrs by RT-PCR analysis; format: cell-based
MDA-MB-231 [31] = assay: Inhibition of epithelial-mesenchymal transition in human MDA-MB-231 cells reduction in beta catenin protein expression after 24 hrs by Western blot analysis; format: functional, cell-based
HCC38 [32] = assay: Inhibition of epithelial-mesenchymal transition in human HCC38 cells increase in E-cadherin expression at 5 uM after 24 hrs by RT-PCR analysis; format: functional, cell-based
[33] = target: Cyclin-dependent kinase 8 (Homo sapiens) (UniProt P49336); assay: Inhibition of CDK8 in human HCC38 cells assessed as reduction in AXL expression after 24 hrs by Western blot analysis; format: cell-based
[34] = target: Cyclin-dependent kinase 8 (Homo sapiens) (UniProt P49336); assay: Inhibition of CDK8 in human HCC38 cells assessed as reduction in STAT3 phosphorylation after 24 hrs by Western blot analysis; format: cell-based
MDA-MB-231 [35] = assay: Cell cycle arrest in human MDA-MB-231 cells assessed as increase in accumulation of cells at sub-G1 phase at 2.5 to 10 uM by PI/RNase staining based flow cytometric analysis; format: functional
[36] = target: Cyclin-dependent kinase 8 (Homo sapiens) (UniProt P49336); assay: Inhibition of CDK8 in human HCC38 cells assessed as increase in P27 expression at 10 uM after 24 hrs by RT-PCR analysis; format: cell-based
HCC38 [37] = assay: Inhibition of colony formation in human HCC38 cells assessed as reduction in number of colonies at 2.5 to 20 uM after 14 days by crystal violet staining based light microscopic analysis; format: functional, cell-based
MDA-MB-231 [38] = assay: Antimigratory activity against human MDA-MB-231 cells at 1.25 to 5 uM after 24 hrs by scratch wound healing based microscopic analysis; format: functional, cell-based
[39] = target: Cyclin-dependent kinase 8 (Homo sapiens) (UniProt P49336); assay: Inhibition of CDK8 in human HCC38 cells assessed as reduction in S6 phosphorylation after 24 hrs by Western blot analysis; format: cell-based
[40] = target: Cyclin-dependent kinase 8 (Homo sapiens) (UniProt P49336); assay: Inhibition of CDK8 in human HCC38 cells assessed as reduction in STAT1 phosphorylation at Ser727 residue after 24 hrs by Western blot analysis; format: cell-based
[41] = target: Cyclin-dependent kinase 8 (Homo sapiens) (UniProt P49336); assay: Inhibition of CDK8 in human HCC38 cells assessed as increase in P27 expression after 48 hrs by Western blot analysis; format: cell-based
MDA-MB-231 [42] = assay: Inhibition of colony formation in human MDA-MB-231 cells assessed as reduction in number of colonies at 2.5 to 20 uM after 14 days by crystal violet staining based light microscopic analysis; format: functional, cell-based
MDA-MB-231 [43] = assay: Antiproliferative activity against human MDA-MB-231 cells assessed as reduction in cell viability after 72 hrs by SRB assay; format: functional, cell-based
MDA-MB-231 [44] = assay: Inhibition of colony formation in human MDA-MB-231 cells assessed as reduction in colony size at 2.5 to 20 uM after 14 days by crystal violet staining based light microscopic analysis; format: functional, cell-based
HCC38 [45] = assay: Cell cycle arrest in human HCC38 cells assessed as increase in accumulation of cells at sub-G1 phase at 2.5 to 10 uM by PI/RNase staining based flow cytometric analysis; format: functional
[46] = target: Cyclin-dependent kinase 8 (Homo sapiens) (UniProt P49336); assay: Inhibition of CDK8 in human MDA-MB-231 cells assessed as reduction in AXL expression after 24 hrs by Western blot analysis; format: cell-based
HCC38 [47] = assay: Inhibition of epithelial-mesenchymal transition in human HCC38 cells reduction in N-cadherin expression at 5 uM after 24 hrs by RT-PCR analysis; format: functional, cell-based
[48] = Toxicity in Balb/c mouse xenografted with human MDA-MB-231 cells assessed as effect on body weight at 5 to 20 mg/kg, ip ip administered 3 times per week and measured 2 times per week for 29 days; format: organism-based; details: in vivo, 696 h
HCC38 [49] = assay: Inhibition of epithelial-mesenchymal transition in human HCC38 cells reduction in beta catenin protein expression after 24 hrs by Western blot analysis; format: functional, cell-based
[50] = target: Cyclin-dependent kinase 8 (Homo sapiens) (UniProt P49336); assay: Inhibition of CDK8 in human MDA-MB-231 cells assessed as reduction in STAT1 phosphorylation at Ser727 residue after 24 hrs by Western blot analysis; format: cell-based

CC(=O)O[C@H]1C(=O)[C@@]2(C)[C@H]([C@H](OC(=O)c3ccccc3)[C@]3(O)C[C@H](OC(=O)[C@H](O)[C@@H](NC(=O)c4ccccc4)c4ccccc4)C(C)=C1C3(C)C)[C@]1(OC(C)=O)CO[C@@H]1C[C@@H]2O [PACLITAXEL]
Activity [1]: Toxic
Activity (Mus musculus [2]): inactive
Activity (Mus musculus [3]): Active
Activity (Mus musculus [4]): inactive

COc1cc(/C=C/C(=O)OC[C@H]2O[C@H](O[C@]3(COC(=O)/C=C/c4ccc(O)cc4)O[C@H](COC(=O)/C=C/c4ccc(O)cc4)[C@@H](O)[C@@H]3OC(=O)/C=C/c3ccc(O)cc3)[C@H](O)[C@@H](O)[C@@H]2O)ccc1O [VANICOSIDE B]
Activity (Mus musculus [5]): Active
inhibition [6]: Dose-dependent effect
inhibition [7]: Dose-dependent effect
inhibition [8]: Dose-dependent effect
inhibition (MDA-MB-231 [9]): Dose-dependent effect
Activity (Mus musculus [10]): Active
inhibition [11]: Active
Activity (HCC38 [12]): Active
inhibition [13]: Active
Activity (MDA-MB-231 [14]): 65.72%
Activity (MDA-MB-231 [15]): Dose-dependent effect
Activity (MDA-MB-231 [16]): Active
inhibition (MDA-MB-231 [17]): Dose-dependent effect
Activity (HCC38 [18]): Dose-dependent effect
inhibition (HCC38 [19]): Dose-dependent effect
inhibition (MDA-MB-231 [20]): Active
inhibition (HCC38 [21]): Active
inhibition [22]: Dose-dependent effect
inhibition (HCC38 [23]): Dose-dependent effect
inhibition [24]: Dose-dependent effect
Activity (MDA-MB-231 [25]): 53.85%
inhibition (MDA-MB-231 [26]): Active
Activity (HCC38 [27]): Active
Activity (Mus musculus [28]): Active
Activity (HCC38 [29]): Dose-dependent effect
inhibition [30]: Active
inhibition (MDA-MB-231 [31]): Dose-dependent effect
inhibition (HCC38 [32]): Active
inhibition [33]: Dose-dependent effect
inhibition [34]: Dose-dependent effect
Activity (MDA-MB-231 [35]): Active
inhibition [36]: Active
inhibition (HCC38 [37]): Active
Activity (MDA-MB-231 [38]): Active
inhibition [39]: Dose-dependent effect
inhibition [40]: Dose-dependent effect
inhibition [41]: Dose-dependent effect
inhibition (MDA-MB-231 [42]): Active
Activity (MDA-MB-231 [43]): Dose-dependent effect
IC50 (MDA-MB-231 [43]; MDA-MB-231, 72 h): 9 µM
inhibition (MDA-MB-231 [44]): Active
Activity (HCC38 [45]): Active
inhibition [46]: Dose-dependent effect
inhibition (HCC38 [47]): Active
Activity [48]: Non-Toxic
inhibition (HCC38 [49]): Dose-dependent effect
inhibition [50]: Dose-dependent effect
